Laboratory results published in the supplement of paper PMC10307832.

Experiments:
Experiment in all cases: relative viability (nuclei count vs DMSO), 5 days (fraction); higher = more cells survive
[1] = compound: Nc1ccccc1NC(=O)c1ccc(CNC(=O)OCc2cccnc2)cc1 [Entinostat] + CS(=O)(=O)N1CCN(Cc2cc3nc(-c4cccc5[nH]ncc45)nc(N4CCOCC4)c3s2)CC1 [Pictilisib] (partner 1 µM)
Procedure, shortened: (§1)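 A single step with final 0.05% Triton X-100, 1% formaldehyde and 1 ug/ml Hoechst fixed the cells and stained nuclei 5 days after treatment. Lung cancer cell lines in 1536-well plates had been treated by pin tool the day after seeding with one drug alone or a fixed anchor-drug dose plus five library-drug doses (not always all listed) in √10 steps, and nuclei were counted on 4× images. Relative viability is the ratio of nuclei in treated wells to nuclei in vehicle wells, taken as the median of duplicate plates.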

[2] = compound: C1COCCN1C2=NC(=NC3=C2OC4=C3C=CC=N4)C5=CC(=CC=C5)NC(=O)C6=CN=C(C=C6)N + CS(=O)(=O)N1CCN(Cc2cc3nc(-c4cccc5[nH]ncc45)nc(N4CCOCC4)c3s2)CC1 [Pictilisib] (partner 1 µM)
Procedure, shortened: as §1

[3] = compound: C1COCCN1C2=NC(=NC3=C2OC4=C3C=CC=N4)C5=CC(=CC=C5)NC(=O)C6=CN=C(C=C6)N + CS(=O)(=O)CCNCc1ccc(-c2ccc3ncnc(Nc4ccc(OCc5cccc(F)c5)c(Cl)c4)c3c2)o1 [Lapatinib] (partner 2 µM)
Procedure, shortened: as §1

[4] = compound: Nc1ccccc1NC(=O)c1ccc(CNC(=O)OCc2cccnc2)cc1 [Entinostat] + Nc1ncn([C@H]2C[C@H](O)[C@@H](CO)O2)c(=O)n1 [Decitabine] (partner 2 µM)
Procedure, shortened: as §1

| Cell Line | relative viability ([1]; first compound 0.02 µM) | relative viability ([1]; first compound 0.06325 µM) | relative viability ([1]; first compound 0.2 µM) | relative viability ([1]; first compound 0.6325 µM) | relative viability ([1]; first compound 2 µM) | relative viability ([2]; first compound 0.02 µM) | relative viability ([2]; first compound 0.06325 µM) | relative viability ([2]; first compound 0.2 µM) | relative viability ([2]; first compound 0.6325 µM) | relative viability ([2]; first compound 2 µM) | relative viability ([3]; first compound 0.02 µM) | relative viability ([3]; first compound 0.06325 µM) | relative viability ([3]; first compound 0.2 µM) | relative viability ([3]; first compound 0.6325 µM) | relative viability ([3]; first compound 2 µM) | relative viability ([4]; first compound 0.02 µM) | relative viability ([4]; first compound 0.06325 µM) | relative viability ([4]; first compound 0.2 µM) | relative viability ([4]; first compound 0.6325 µM) | relative viability ([4]; first compound 2 µM) |
| --- | --- | --- | --- | --- | --- | --- | --- | --- | --- | --- | --- | --- | --- | --- | --- | --- | --- | --- | --- | --- |
| NCI-H2347 | 0.494 | 0.321 | 0.333 | 0.216 | 0.345 | 0.735 | 0.703 | 0.601 | 0.619 | 0.497 | 0.993 | 0.787 | 0.929 | 0.944 | 0.933 | 0.611 | 0.585 | 0.494 | 0.471 | 0.363 |
| NCI-H2405 | 0.483 | 0.678 | 0.545 | 0.393 | 0.222 | 0.431 | 0.45 | 0.414 | 0.428 | 0.423 | 0.983 | 1.05 | 1.04 | 1.02 | 0.902 | 0.693 | 0.784 | 0.686 | 0.501 | 0.511 |
| NCI-H3122 | 0.648 | 0.663 | 0.678 | 0.441 | 0.298 | 0.621 | 0.588 | 0.531 | 0.515 | 0.451 | 0.958 | 1.08 | 1.04 | 1.07 | 0.88 | 0.439 | 0.47 | 0.477 | 0.339 | 0.243 |
| PC-3 [JPC-3] | 0.684 | 0.746 | 0.623 | 0.387 | 0.306 | 0.754 | 0.831 | 0.739 | 0.798 | 0.629 | 0.444 | 0.459 | 0.438 | 0.476 | 0.398 | 0.778 | 0.852 | 0.731 | 0.573 | 0.55 |
| PC-14 | 0.602 | 0.516 | 0.5 | 0.189 | 0.0672 | 0.903 | 1.05 | 0.512 | 0.558 | 0.261 | 0.308 | 0.391 | 0.307 | 0.283 | 0.249 | 0.248 | 0.184 | 0.189 | 0.109 | 0.0779 |
| RERF-LC-KJ | 0.695 | 0.527 | 0.516 | 0.431 | 0.375 | 0.46 | 0.618 | 0.508 | 0.507 | 0.478 | 0.976 | 0.922 | 0.844 | 0.769 | 0.65 | 0.712 | 0.685 | 0.663 | 0.369 | 0.285 |
| SK-LU-1 | 0.503 | 0.493 | 0.622 | 0.38 | 0.333 | 0.553 | 0.671 | 0.634 | 0.536 | 0.467 | 1.02 | 1.01 | 0.786 | 0.824 | 0.33 | 0.643 | 0.805 | 0.638 | 0.473 | 0.418 |
| SK-MES-1 | 0.356 | 0.465 | 0.506 | 0.376 | 0.277 | 0.31 | 0.407 | 0.369 | 0.353 | 0.317 | 0.455 | 0.492 | 0.431 | 0.424 | 0.312 | 0.362 | 0.36 | 0.434 | 0.303 | 0.331 |
| SW 1573 | 0.518 | 0.506 | 0.451 | 0.495 | 0.344 | 0.555 | 0.54 | 0.621 | 0.534 | 0.344 | 1.2 | 1.13 | 0.932 | 1.1 | 0.896 | 0.526 | 0.46 | 0.486 | 0.311 | 0.22 |
